In experiment [1] the test system is Streptococcus bovis ATCC 8043. Briefly: Antibacterial activity (agar dilution method), MIC. The class given is cell-based. To be noted: unit assumed. On the procedure:
(§1) Compounds of the invention were next tested for antibacterial potency, such activity being regarded as an undesirable side effect of motilin […] therapy. Assays were conducted using methodology well-known in the art (the agar dilution method).

Experiment [2] concerns Pseudomonas eruginosa K799/WT. In words: Antibacterial activity (agar dilution method), MIC. It is filed as cell-based. As to conditions: unit assumed. On the procedure: as §1
On the technique in general: Agar dilution tests growth on a series of plates holding different concentrations.

Experiment [3] concerns Streptococcus aureus ATCC 7538P. In words: Antibacterial activity (agar dilution method), MIC. It is filed as cell-based. To be noted: unit assumed. On the procedure: as §1
Experiment [4] has as its system Streptococcus aureus A5177. Briefly: Antibacterial activity (agar dilution method), MIC. To be noted: unit assumed. The class given is cell-based. On the procedure:
as §1

For experiment [5], the system named is Streptococcus pyogenes EES61. Briefly: Antibacterial activity (agar dilution method), MIC. It is filed as cell-based. To be noted: unit assumed. On the procedure:
as §1

The test system of another experiment is Escherichia coli SS. Briefly: Antibacterial activity (agar dilution method), MIC. The class given is cell-based. As to conditions: unit assumed. On the procedure:
as §1

Experiment [6] relates to rabbit duodenal smooth muscle. Briefly: In vitro prokinetic activity: contraction of smooth muscle strips isolated from rabbit small intestine (duodenum). The class given is cell-based. On the procedure: The compounds of the present invention were tested in vitro for their ability to induce contraction of smooth muscle strips isolated from rabbit small intestine using the following procedure:
Rabbits were sacrificed and 15 cm of duodenum was rapidly removed and placed in ice-cold modified Ringers solution (120 mM sodium chloride, 25 mM sodium bicarbonate, 4.7 mM potassium chloride, 1.25 mM calcium chloride, 1.20 mM magnesium sulfate and 5.6 mM glucose). The longitudinal muscle layer was separated from the circular muscle by blunt dissection and cut into strips of 10×20 mm. Double-folded strips were vertically suspended between two hooks in 10 mL tissue baths with a mechanical preload of 1 g. The upper hook was connected to an […] force transducer, and its displacement was recorded on a Grass polygraph. The tissue baths contained modified Ringers solution at 37° C. and were continuously gassed with 95% oxygen/5% carbon dioxide in order to maintain the pH at 7.5.
After a stabilization period of at least 60 minutes, a contractility dose-response series was performed by adding increasing final concentrations of methacholine (10^-7 M, 10^-6 M and 10^-5 M) in volumes of 100 μL. The bath solutions were replaced at least three times between doses.
After the methacholine dose-response series was completed, a test compound dose response curve was initiated by the same procedure used for the methacholine dose-response series, with at least five concentrations of test compound within the range of 10^-10 M to 10^-4 M. The tissues were washed repeatedly between doses, and the studies were completed by recording the contractile response to 10^-5 M methacholine to ascertain integrity of the muscle preparation. Contractile responses were expressed as percent of maximal methacholine induced contraction. The concentration of test compound which produces half of the maximal contraction (ED50 value) and the negative logarithm of the ED50 value (pED50) were estimated from the dose-response curves. The pED50 values were compared to motilin, (pED50 : 8.10) a known gastrointestinal prokinetic agent.

The target of a further experiment is T1, motilin receptors (Oryctolagus cuniculus, UniProt G1T803).
T1 construct: Motilin receptors were isolated from rabbit antral smooth muscle tissue; from tissue; host or cells: rabbit antral smooth muscle tissue
In words: Motilin receptor binding activity ([^125 I]-motilin displacement, rabbit antral smooth muscle). The text has this:
This ability of the compounds to bind strongly to motilin receptors and the effective absence of elicitation of contractile activity by estimated therapeutic concentration of these compounds in rabbit duodenal smooth muscle together constitute motilin antagonist activity of the compounds.

SMILES strings stand for the structures. In brackets after ≈: the same amount, converted by molar mass. Read-outs that look alike come from different tables or passages of the source.

T1 sequence (G1T803 1-400): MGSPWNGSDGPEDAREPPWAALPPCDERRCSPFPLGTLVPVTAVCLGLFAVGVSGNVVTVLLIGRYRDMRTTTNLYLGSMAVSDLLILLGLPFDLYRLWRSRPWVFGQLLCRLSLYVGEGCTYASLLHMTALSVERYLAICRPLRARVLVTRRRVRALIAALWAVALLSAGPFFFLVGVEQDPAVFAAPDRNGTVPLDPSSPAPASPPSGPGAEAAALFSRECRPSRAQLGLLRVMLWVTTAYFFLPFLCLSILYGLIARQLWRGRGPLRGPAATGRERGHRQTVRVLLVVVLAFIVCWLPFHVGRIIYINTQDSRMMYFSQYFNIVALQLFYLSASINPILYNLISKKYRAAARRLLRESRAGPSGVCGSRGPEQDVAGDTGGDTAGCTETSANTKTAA

In general, MIC refers to the smallest concentration in the dilution series that meets the test's criterion for growth inhibition. A low value points to a more susceptible organism. With `CC[C@H]1OC(=O)[C@H](C)[C@@H](O[C@H]2C[C@@](C)(OC)[C@@H](O)[C@H](C)O2)[C@H](C)[C@@H](O[C@@H]2O[C@H](C)C[C@H](N(C)C)[C@H]2O)[C@](C)(O)C[C@@H](C)C(=O)[C@H](C)[C@@H](O)[C@]1(C)O` [Erythromycin], the MIC came out at 0.05 µg/mL (≈ 0.0681 µM) in experiment [1]; 0.78 µg/mL (≈ 1.06 µM) in experiment [2]; 0.2 µg/mL (≈ 0.273 µM) in experiment [3]; 6.2 µg/mL (≈ 8.45 µM) in experiment [4]; 0.05 µg/mL (≈ 0.0681 µM) in experiment [5]; 0.39 µg/mL (≈ 0.531 µM) against Escherichia coli SS.

Regarding `CC[C@H]1OC(=O)[C@H](C)[C@@H](O[C@H]2C[C@@](C)(OC)C[C@H](C)O2)[C@H](C)[C@@H](O[C@@H]2O[C@H](C)C[C@H](N(C)CC)[C@H]2O)[C@@]2(C)CC(C)=C(O2)C(C(C)F)[C@H]1C` (stereo partly shown) [Example 1, Compound of Formula (I); R=H; R^1 =methyl; R^2 =ethyl; R^3 =H; X=F], the EC50 in experiment [6] (Oryctolagus cuniculus, rabbit duodenum strips, 37° C., percent of maximal methacholine induced contraction, read-out: pED50 (negative logarithm of the concentration producing half of the maximal contraction) (converted)) was greater than 100 µM. The “agonism for induction of contractile activity (in words)” value in experiment [6] (rabbit duodenal smooth muscle) is “very weak agonist”. Moreover, the “potency relative to motilin, induction of contractile activity” value in experiment [6] (rabbit duodenal smooth muscle, pED50 compared to motilin) is recorded as “more than four orders of magnitude less potent than motilin”. Besides, the “motilin receptor binding (in words)” value on motilin receptors (rabbit antral smooth muscle, [^125 I]-motilin) was “binds strongly to motilin receptors”. Also, on motilin receptors (rabbit antral smooth muscle, [^125 I]-motilin, read-out: pKd, motilin binding (negative logarithm of the concentration displacing 50% of bound [^125 I]-motilin) (converted)), the Kd was 0.0115 µM. In addition, the MIC is 25 µg/mL in experiment [1]; greater than 100 µg/mL in experiment [2]; 50 µg/mL in experiment [3]; 50 µg/mL in experiment [4]; 25 µg/mL in experiment [5]; greater than 100 µg/mL in the experiment on Escherichia coli SS.

Take `CC[C@H](C)[C@H](NC(=O)[C@@H]1CCCN1C(=O)[C@@H](NC(=O)[C@@H](N)Cc1ccccc1)C(C)C)C(=O)N[C@@H](Cc1ccccc1)C(=O)N[C@H](C(=O)N[C@@H](Cc1ccc(O)cc1)C(=O)NCC(=O)N[C@@H](CCC(=O)O)C(=O)N[C@@H](CC(C)C)C(=O)N[C@@H](CCC(N)=O)C(=O)N[C@@H](CCCNC(=N)N)C(=O)N[C@@H](CCSC)C(=O)N[C@@H](CCC(N)=O)C(=O)N[C@@H](CCC(=O)O)C(=O)N[C@@H](CCCCN)C(=O)N[C@@H](CCC(=O)O)C(=O)N[C@@H](CCCNC(=N)N)C(=O)N[C@@H](CC(N)=O)C(=O)N[C@@H](CCCCN)C(=O)NCC(=O)N[C@@H](CCC(N)=O)C(=O)O)[C@@H](C)O` [motilin, reference compound]: the “pED50 (negative logarithm of the concentration producing half of the maximal contraction)” value in experiment [6] (rabbit duodenum strips, 37° C., percent of maximal methacholine induced contraction) stood at 8.10. The Kd on motilin receptors is 0.000794 µM.

The record behind these values is US5712253A, “Macrocyclic 13-membered ring derivatives of erythromycins A and B” (Abbott Laboratories, priority 1996, dated 1998).
